Results taken from patent US20170065667A1, “METHODS FOR SYNCHRONIZATION OF ESTROUS CYCLES AND OVULATION FOR FIXED TIME ARTIFICIAL INSEMINATION IN CATTLE” (Parnell Technologies Pty Ltd., priority 2014, published 2017).
Where two headings read alike, the source gives them in different places.

Columns and labels:
[1] = tested on: lactating dairy cows; conditions: cited from earlier work
[2] = tested on: lactating dairy cows; assay: Experiment 2: P/AI on 11 commercial dairies, Ovsynch vs. Ovsynch + second cloprostenol sodium injection; type: in vivo, cattle
Procedure: An experiment was performed on 11 commercial dairies in different locations in the United States: 3 dairies in Wisconsin; 3 dairies in California; 2 dairies in New York; 1 dairy in Pennsylvania; 1 dairy in New Mexico; and 1 dairy in Texas. Although overall management was quite different for each herd, each herd used the same reproductive management protocol during this experiment. Cows were randomly assigned within herd, parity, and date to one of three treatment groups at about 40 to about 46 days in milk. One of the treatment groups, Presynch-Ovsynch with heat detection, was not considered in the present analysis. Therefore only two treatment groups were utilized for all analyses, as shown in the diagram for Experiment 2 in FIG. 2.
All animals were synchronized using a GnRH composition (about 100 mcg of gonadorelin acetate per mL, GONAbreed®, Parnell Technologies Pty Ltd, Alexandria, Australia) and a PGF2α analog composition (about 250 mcg of cloprostenol sodium per mL, estroPLAN®, Parnell Technologies Pty Ltd, Alexandria, Australia).
(§1) One treatment group began at about 47 to about 53 days in milk where the cows received a first 1 mL intramuscular injection of a gonadorelin acetate composition. At about 54 to about 60 days in milk, the cows received a first 2 mL intramuscular injection of a cloprostenol sodium composition. At about 56 to about 62 days in milk (about 56 hours after the first injection of the cloprostenol sodium composition), the cows received a second 1 mL intramuscular injection of a gonadorelin acetate composition. And at about 57 to about 63 days in milk (about 16 hours after the second injection of the gonadorelin acetate composition), the animals received AI, concluding the Ovsynch phase.
as §1, with “The other treatment group” for “One treatment group”, “a first 2 mL intramuscular injection of a cloprostenol sodium composition. At about 55 to about 61 days in milk (about 24 hours after the first injection of the cloprostenol sodium composition), the cows received a second 2 mL” for “a first 2 mL”
Pregnancy diagnosis was performed with ultrasound utilizing the normal schedule for each herd (Wisconsin and Pennsylvania herds, 31-33 days after AI; California, New York, New Mexico, and Texas herds, 37-43 days after AI). Data on all treatments, AI, and pregnancy diagnosis were recorded for each individual cow in most cases (n=1,912). In some cows, data was extrapolated from other recorded data due to missing one treatment recording (n=110) or two or more treatment recordings in a cow (n=126). Pregnancy was based on a verified pregnancy diagnosis. Non-pregnancy was based on absence of pregnancy at a pregnancy diagnosis or a rebreeding to an estrus prior to pregnancy diagnosis. Statistical analyses were performed using PROC Logistic in SAS. Treatment and parity were forced into the model and factors were kept in the model if they were significant at P<0.15.

In the case of prostaglandin F2α [PGF], the “improvement in fertility in first service cows, two vs. one PGF2α” value ([1]; 7 day Ovsynch, not statistically significant) is listed as 5.7%, the “fertility in first service cows” value ([1]; one PGF2α treatment, 7 day Ovsynch) is listed as 47.0% and the “fertility in first service cows” value ([1]; two PGF2α treatments, 7 day Ovsynch) is listed as 52.7%. The “Effect of second cloprostenol sodium injection, relative difference in P/AI” value (“Effect … relative difference in P/AI” for short) ([2]; Total of 11 farms) was 8.5% and the “absolute improvement in fertility due to the second PGF treatment” value ([2]; all results combined, 11 farms) was ~3%.

In the case of `O=C(O)CCC/C=C\CC1C(O)CC(O)C1/C=C/C(O)COc1cccc(Cl)c1` (stereo not drawn) [cloprostenol sodium], the “effect on fertility of increasing the dose” value ([1]; dose from 500 to 750 μg, 7 day protocol) is given as “tended to increase fertility”, the “Effect of second cloprostenol sodium injection, Difference in P/AI” value ([2]; All Multiparous) is given as “+10.65% (P = 0.073)” and the “Effect of second cloprostenol sodium injection, Difference in P/AI” value ([2]; Fourth or Greater lactation) is given as “+0.09% (P = 0.517)”. For the same compound, the “P/AI, % (n/n)” value ([2]; Ovsynch (one cloprostenol sodium injection), farm CA-01) was 29.4%, the “percentage of cows pregnant per AI” value ([2]; Ovsynch (one injection), All Multiparous) was 32.01 (259/809) % and the “percentage of cows pregnant per AI” value ([2]; Ovsynch (one injection), Fourth or Greater lactation) was 30.09 (65/216) %. The “percentage of cows pregnant per AI” value ([2]; Ovsynch (one injection), Primiparous) was 37.07 (99/267) %, the “percentage of cows pregnant per AI” value ([2]; Ovsynch (one injection), Second and Third lactation) was 32.71 (194/593) % and the “P/AI, % (n/n)” value ([2]; Ovsynch (one injection), Total of 11 farms) was 33.3%. The “P/AI, % (n/n)” value ([2]; Ovsynch (one injection), farm CA-02) was 35.3%, the “P/AI, % (n/n)” value ([2]; Ovsynch (one injection), farm CA-O3) was 30.4% and the “P/AI, % (n/n)” value ([2]; Ovsynch (one injection), farm NM-04) was 35.2%. For the same compound, the “P/AI, % (n/n)” value ([2]; Ovsynch (one injection), farm NY-05) was 32.7%, the “P/AI, % (n/n)” value ([2]; Ovsynch (one injection), farm NY-06) was 29.4% and the “P/AI, % (n/n)” value ([2]; Ovsynch (one injection), farm PA-07) was 39.2%. The “P/AI, % (n/n)” value ([2]; Ovsynch (one injection), farm TX-08) was 37.7%, the “P/AI, % (n/n)” value ([2]; Ovsynch (one injection), farm WI-09) was 28.1% and the “P/AI, % (n/n)” value ([2]; Ovsynch (one injection), farm WI-10) was 35.3%. For the same compound, the “P/AI, % (n/n)” value ([2]; Ovsynch (one injection), farm WI-11) was 26.9%, the “P/AI, % (n/n)” value ([2]; Ovsynch + second cloprostenol sodium injection, farm CA-01) was 36.4% and the “percentage of cows pregnant per AI” value ([2]; Ovsynch + second injection, All Multiparous) was 35.42 (288/813) %. For the same compound, the “percentage of cows pregnant per AI” value ([2]; Ovsynch + second injection, Fourth or Greater lactation) was 30.36 (68/224) %, the “percentage of cows pregnant per AI” value ([2]; Ovsynch + second injection, Primiparous) was 38.22 (99/259) % and the “percentage of cows pregnant per AI” value ([2]; Ovsynch + second injection, Second and Third lactation) was 37.35 (220/589) %. The “P/AI, % (n/n)” value ([2]; Ovsynch + second injection, Total of 11 farms) was 36.1%, the “P/AI, % (n/n)” value ([2]; Ovsynch + second injection, farm CA-02) was 39.8% and the “P/AI, % (n/n)” value ([2]; Ovsynch + second injection, farm CA-O3) was 34.1%. For the same compound, the “P/AI, % (n/n)” value ([2]; Ovsynch + second injection, farm NM-04) was 37.7%, the “P/AI, % (n/n)” value ([2]; Ovsynch + second injection, farm NY-05) was 31.2% and the “P/AI, % (n/n)” value ([2]; Ovsynch + second injection, farm NY-06) was 42.0%. For the same compound, the “P/AI, % (n/n)” value ([2]; Ovsynch + second injection, farm PA-07) was 43.6%, the “P/AI, % (n/n)” value ([2]; Ovsynch + second injection, farm TX-08) was 29.8% and the “P/AI, % (n/n)” value ([2]; Ovsynch + second injection, farm WI-09) was 40.4%. The “P/AI, % (n/n)” value ([2]; Ovsynch + second injection, farm WI-10) was 37.0%, the “P/AI, % (n/n)” value ([2]; Ovsynch + second injection, farm WI-11) was 26.9% and the “Effect of second cloprostenol sodium injection, Difference in P/AI” value ([2]; Second and Third lactation) was “+14.19% (P = 0.047)”. The “Effect … relative difference in P/AI” value ([2]; Total of 11 farms) was “+8.50%”, the “Effect … relative difference in P/AI” value ([2]; farm CA-01) was “+23.64%” and the “Effect … relative difference in P/AI” value ([2]; farm CA-02) was “+12.99%”. For the same compound, the “Effect … relative difference in P/AI” value ([2]; farm CA-O3) was “+12.03%”, the “Effect … relative difference in P/AI” value ([2]; farm NM-04) was “+7.04%” and the “Effect … relative difference in P/AI” value ([2]; farm NY-05) was −4.47%. For the same compound, the “Effect … relative difference in P/AI” value ([2]; farm NY-06) was “+43.11%”, the “Effect … relative difference in P/AI” value ([2]; farm PA-07) was “+10.98%” and the “Effect … relative difference in P/AI” value ([2]; farm TX-08) was −20.86%. For the same compound, the “Effect … relative difference in P/AI” value ([2]; farm WI-09) was “+43.75%”, the “Effect … relative difference in P/AI” value ([2]; farm WI-10) was −4.94% and the “Effect … relative difference in P/AI” value ([2]; farm WI-11) was 0.0%. The “Effect of second cloprostenol sodium injection, Difference in P/AI” value ([2]; primiparous) was “+3.10% (P = 0.393)”.
